pIC50: −log10 of the molar value. Each block holds one molecule with its values, some of them ahead of it.
Columns and labels:
[1] = biological target: T1, Muscarinic acetylcholine receptor M5 (Homo sapiens, UniProt P08912); experiment: Antagonist activity at recombinant human M5 receptor expressed in CHO cells co-expressing Gqi5 by calcium mobilization assay; format: functional, cell-based
T1 sequence (P08912 whole entry): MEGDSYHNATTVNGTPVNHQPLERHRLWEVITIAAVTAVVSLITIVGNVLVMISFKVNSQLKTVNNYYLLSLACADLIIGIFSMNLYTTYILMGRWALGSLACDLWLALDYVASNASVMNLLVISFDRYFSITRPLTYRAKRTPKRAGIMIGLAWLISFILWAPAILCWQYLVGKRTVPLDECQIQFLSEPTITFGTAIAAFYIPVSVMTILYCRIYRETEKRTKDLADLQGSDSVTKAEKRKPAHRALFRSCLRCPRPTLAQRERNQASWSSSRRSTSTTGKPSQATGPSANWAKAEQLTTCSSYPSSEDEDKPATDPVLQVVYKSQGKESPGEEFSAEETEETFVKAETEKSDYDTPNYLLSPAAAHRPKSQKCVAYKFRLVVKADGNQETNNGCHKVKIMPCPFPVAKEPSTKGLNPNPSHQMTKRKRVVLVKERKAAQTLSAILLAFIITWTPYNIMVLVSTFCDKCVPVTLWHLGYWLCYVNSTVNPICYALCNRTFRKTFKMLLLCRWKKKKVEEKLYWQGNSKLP

[2] = Brain to plasma partition coefficient, Kp of the compound in rat; format: ADME
[3] = biological target: T2, Muscarinic acetylcholine receptor M4 (Homo sapiens, UniProt P08173); experiment: Antagonist activity at recombinant human M4 receptor expressed in CHO cells co-expressing Gqi5 by calcium mobilization assay; format: functional, cell-based; details: for pIC50: read-out: IC50; for IC50: read-out: pIC50 (converted)
T2 sequence (P08173 whole entry): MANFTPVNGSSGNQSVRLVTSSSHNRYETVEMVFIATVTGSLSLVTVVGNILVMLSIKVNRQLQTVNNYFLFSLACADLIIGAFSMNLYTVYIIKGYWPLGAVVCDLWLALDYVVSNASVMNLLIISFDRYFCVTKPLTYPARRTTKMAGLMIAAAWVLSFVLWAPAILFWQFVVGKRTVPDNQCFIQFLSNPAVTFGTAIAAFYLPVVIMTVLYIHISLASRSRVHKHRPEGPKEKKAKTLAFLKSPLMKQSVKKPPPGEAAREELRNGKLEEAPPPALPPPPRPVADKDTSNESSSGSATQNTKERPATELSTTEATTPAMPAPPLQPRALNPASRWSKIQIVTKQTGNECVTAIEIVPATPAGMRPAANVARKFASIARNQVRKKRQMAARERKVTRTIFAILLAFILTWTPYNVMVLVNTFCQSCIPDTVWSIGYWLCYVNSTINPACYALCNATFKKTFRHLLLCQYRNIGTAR

[4] = biological target: T3, Muscarinic acetylcholine receptor M4 (Homo sapiens) (UniProt P08173); experiment: Antagonist activity at recombinant human M4 receptor expressed in CHO cells co-expressing Gqi5 by calcium mobilization assay relative to acetylcholine; format: functional, cell-based
T3 sequence (whole entry): T2 sequence (P08173 whole entry)

[5] = biological target: T4, Muscarinic acetylcholine receptor M1 (Homo sapiens, UniProt P11229); experiment: Antagonist activity at recombinant human M1 receptor expressed in CHO cells co-expressing Gqi5 by calcium mobilization assay; format: functional, cell-based
T4 sequence (P11229 whole entry): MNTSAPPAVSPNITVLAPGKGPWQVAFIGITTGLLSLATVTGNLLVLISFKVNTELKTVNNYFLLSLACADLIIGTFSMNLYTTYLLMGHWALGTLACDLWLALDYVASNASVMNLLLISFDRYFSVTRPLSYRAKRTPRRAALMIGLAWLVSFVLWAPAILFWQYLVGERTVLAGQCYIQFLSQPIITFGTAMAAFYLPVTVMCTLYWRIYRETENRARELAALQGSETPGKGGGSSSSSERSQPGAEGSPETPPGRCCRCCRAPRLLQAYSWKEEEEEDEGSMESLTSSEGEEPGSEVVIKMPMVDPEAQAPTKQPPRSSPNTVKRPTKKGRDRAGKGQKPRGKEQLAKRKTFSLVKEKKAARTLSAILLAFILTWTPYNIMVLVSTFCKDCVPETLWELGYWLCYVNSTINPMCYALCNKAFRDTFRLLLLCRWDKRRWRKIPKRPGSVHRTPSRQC

[6] = biological target: T5, Muscarinic acetylcholine receptor M2 (Homo sapiens, UniProt P08172); experiment: Antagonist activity at recombinant human M2 receptor expressed in CHO cells co-expressing Gqi5 by calcium mobilization assay; format: functional, cell-based
T5 sequence (P08172 whole entry): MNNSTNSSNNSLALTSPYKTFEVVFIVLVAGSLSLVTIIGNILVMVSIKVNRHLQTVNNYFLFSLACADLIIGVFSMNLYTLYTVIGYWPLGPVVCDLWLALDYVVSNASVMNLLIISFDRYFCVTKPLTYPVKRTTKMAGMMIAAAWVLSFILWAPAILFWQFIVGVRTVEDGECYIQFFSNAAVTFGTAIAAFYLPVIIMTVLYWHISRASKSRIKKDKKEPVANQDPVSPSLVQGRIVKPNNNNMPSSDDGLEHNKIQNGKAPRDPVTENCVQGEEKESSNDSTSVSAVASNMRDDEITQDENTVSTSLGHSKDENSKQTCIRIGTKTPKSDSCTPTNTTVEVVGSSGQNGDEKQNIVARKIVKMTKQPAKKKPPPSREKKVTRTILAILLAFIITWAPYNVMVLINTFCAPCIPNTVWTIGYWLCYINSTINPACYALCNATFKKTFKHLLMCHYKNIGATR

[7] = biological target: T6, Muscarinic acetylcholine receptor M3 (Homo sapiens, UniProt P20309); experiment: Antagonist activity at recombinant human M3 receptor expressed in CHO cells co-expressing Gqi5 by calcium mobilization assay; format: functional, cell-based
Target sequence in this assay (P20309 whole entry): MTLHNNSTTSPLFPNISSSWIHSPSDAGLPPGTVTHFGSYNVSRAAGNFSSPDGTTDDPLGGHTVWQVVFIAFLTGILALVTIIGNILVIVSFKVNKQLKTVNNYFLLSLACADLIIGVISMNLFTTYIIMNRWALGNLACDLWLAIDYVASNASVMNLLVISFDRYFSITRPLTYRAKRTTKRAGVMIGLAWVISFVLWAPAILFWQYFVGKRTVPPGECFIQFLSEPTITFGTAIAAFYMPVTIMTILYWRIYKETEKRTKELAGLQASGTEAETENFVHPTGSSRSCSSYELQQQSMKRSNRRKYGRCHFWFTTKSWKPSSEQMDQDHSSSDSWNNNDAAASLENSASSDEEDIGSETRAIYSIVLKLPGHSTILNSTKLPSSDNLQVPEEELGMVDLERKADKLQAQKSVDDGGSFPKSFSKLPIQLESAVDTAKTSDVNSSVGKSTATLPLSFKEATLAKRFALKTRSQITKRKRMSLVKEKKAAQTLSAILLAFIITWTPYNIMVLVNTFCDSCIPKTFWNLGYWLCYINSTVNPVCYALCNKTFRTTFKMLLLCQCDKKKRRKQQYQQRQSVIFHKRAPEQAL

[8] = Ratio of unbound brain to plasma concentration in rat; format: ADME
[9] = biological target: T7, Muscarinic acetylcholine receptor M1 (Homo sapiens) (UniProt P11229); experiment: Antagonist activity at recombinant human M1 receptor expressed in CHO cells co-expressing Gqi5 by calcium mobilization assay relative to acetylcholine; format: functional, cell-based
T7 sequence (whole entry): T4 sequence (P11229 whole entry)

[10] = biological target: T8, Muscarinic acetylcholine receptor M2 (Homo sapiens) (UniProt P08172); experiment: Antagonist activity at recombinant human M2 receptor expressed in CHO cells co-expressing Gqi5 by calcium mobilization assay relative to acetylcholine; format: functional, cell-based
T8 sequence (whole entry): T5 sequence (P08172 whole entry)

[11] = biological target: T6, Muscarinic acetylcholine receptor M3; experiment: Antagonist activity at recombinant human M3 receptor expressed in CHO cells co-expressing Gqi5 by calcium mobilization assay relative to acetylcholine; format: functional, cell-based
Target sequence in this assay (P20309 whole entry, looked up): as the sequence (P20309 whole entry) above

[12] = biological target: T9, Muscarinic acetylcholine receptor M5 (Homo sapiens) (UniProt P08912); experiment: Antagonist activity at recombinant human M5 receptor expressed in CHO cells co-expressing Gqi5 by calcium mobilization assay relative to acetylcholine; format: functional, cell-based
T9 sequence (whole entry): T1 sequence (P08912 whole entry)

Plasma [13] = experiment: Unbound plasma concentration in rat; format: ADME, cell-free
Brain = experiment: Unbound brain concentration in rat; format: ADME, tissue-based; details: in vivo
[14] = biological target: T10, Muscarinic acetylcholine receptor M4 (Rattus norvegicus, UniProt P08485); experiment: Antagonist activity at rat M4 receptor by calcium mobilization assay; format: functional; details: for pIC50: read-out: IC50; for IC50: read-out: pIC50 (converted)
T10 sequence (P08485 whole entry): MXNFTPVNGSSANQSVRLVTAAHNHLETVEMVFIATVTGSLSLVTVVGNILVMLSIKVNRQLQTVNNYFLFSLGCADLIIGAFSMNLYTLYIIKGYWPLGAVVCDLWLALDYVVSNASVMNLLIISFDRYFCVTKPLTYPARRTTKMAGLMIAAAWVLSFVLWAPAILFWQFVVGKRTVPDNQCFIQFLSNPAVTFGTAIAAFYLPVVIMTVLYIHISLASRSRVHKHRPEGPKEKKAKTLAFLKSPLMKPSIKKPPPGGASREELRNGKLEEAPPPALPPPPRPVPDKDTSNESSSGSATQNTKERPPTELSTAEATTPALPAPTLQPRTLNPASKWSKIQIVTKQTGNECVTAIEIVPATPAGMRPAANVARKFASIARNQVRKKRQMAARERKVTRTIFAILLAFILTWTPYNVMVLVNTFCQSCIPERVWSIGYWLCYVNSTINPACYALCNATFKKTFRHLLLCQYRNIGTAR

[15] = biological target: T11, Muscarinic acetylcholine receptor M4 (Rattus norvegicus) (UniProt P08485); experiment: Antagonist activity at rat M4 receptor by calcium mobilization assay relative to acetylcholine; format: functional
T11 sequence (whole entry): T10 sequence (P08485 whole entry)

Plasma [16] = experiment: Unbound plasma concentration in human; format: ADME, cell-free
[17] = Clearance in rat at 0.2 mg/kg administered as iv cassette dose; details: in vivo
[18] = Elimination half life in rat at 0.2 mg/kg administered as iv cassette dose; details: in vivo, read-out: beta t1/2 (converted)
[19] = Volume of distribution at steady state in rat at 0.2 mg/kg administered as iv cassette dose; details: in vivo, read-out: Vdss

Structure (SMILES): O=C(C1CCN(c2cc(Oc3cccc(F)c3F)ncn2)CC1)N1CCc2ccccc2C1
pIC50 [3]: 6.72
IC50 [3]: 170 nM
Emin [4]: 3.1%

Structure (SMILES): O=C(NCc1ccccc1)C1CCN(c2cc(Oc3ccc(F)cc3F)ncn2)CC1
pIC50 [3]: < 5.00

Structure (SMILES): O=C(C1CCN(c2cc(Oc3c(F)cccc3F)ncn2)CC1)N1CCc2ccccc2C1
Emin [4]: 7%

Structure (SMILES): O=C(C1CCN(c2cc(Oc3ccc(Cl)cc3)ncn2)CC1)N1CCc2ccccc2C1
pIC50 [1]: 6.16
pIC50 [3]: 6.85
IC50 [3]: 132 nM
Emin [4]: 3%
pIC50 [5]: 6.50
pIC50 [6]: 6.45
pIC50 [7]: 6.44
Emin [9]: < 6%
Emin [10]: < 6%
Emin [11]: < 6%
Emin [12]: < 6%

Structure (SMILES): Cc1ccc(Oc2cc(N3CCC(C(=O)N4CCc5ccccc5C4)CC3)ncn2)cc1
pIC50 [3]: 6.51
Emin [4]: 3.3%

The next lines start with the values.

pIC50 [1]: 6.14
Kp ([2]; brain/plasma, read-out: Kp): 0.68
pIC50 [3]: 6.89
IC50 [3]: 123 nM
Emin [4]: 3.2%
pIC50 [5]: 6.49
pIC50 [6]: 6.42
pIC50 [7]: 6.39
Kp uu ([8]; brain/plasma, read-out: K(p,uu,brain)): 0.75
Emin [9]: < 6%
Emin [10]: < 6%
Emin [11]: < 6%
Emin [12]: < 6%
Structure (SMILES): O=C(C1CCN(c2cc(Oc3ccccc3F)ncn2)CC1)N1CCc2ccccc2C1

pIC50 [3]: 6.51
Emin [4]: 3.2%
Structure (SMILES): O=C(C1CCN(c2cc(Oc3cccc(F)c3)ncn2)CC1)N1CCc2ccccc2C1

pIC50 [1]: > 5.82
Fu (Plasma [13]): 0.004
Kp [2]: 1.45
Fu (Brain): 0.001
pIC50 [3]: 6.42
IC50 [3]: 347 nM
Emin [4]: 5.3%
pIC50 [14]: 6.23
IC50 [14]: 562 nM
Emin [15]: 13.1%
pIC50 [5]: > 5.82
pIC50 [6]: > 5.82
pIC50 [7]: > 5.82
Fu (Plasma [16]): 0.001
K(p,uu,brain) [8]: 0.36
Structure (SMILES): CCc1ccc(Oc2cc(N3CCC(C(=O)N4CCc5ccccc5C4)CC3)ncn2)cc1

pIC50 [3]: 7.10
Emin [4]: 3.1%
Structure (SMILES): O=C(C1CCN(c2cc(Oc3cc(F)ccc3F)ncn2)CC1)N1CCc2ccccc2C1

pIC50 [3]: 5.61
IC50 [3]: 2400 nM
Emin [4]: 11.8%
Structure (SMILES): COc1ccc2c(c1)CN(C(=O)C1CCN(c3cc(Oc4ccc(F)cc4F)ncn3)CC1)CC2

pIC50 [3]: < 5.00
Structure (SMILES): O=C(C1CCN(c2cc(Oc3ccc(F)cc3F)ncn2)CC1)N1CCc2cc(C(F)(F)F)ccc2C1

pIC50 [1]: 5.95
Kp [2]: 0.67
pIC50 [3]: 6.47
IC50 [3]: 324 nM
Emin [4]: 18.4%
pIC50 [14]: 6.25
IC50 [14]: 479 nM
Emin [15]: 42.7%
pIC50 [5]: 6.27
pIC50 [6]: 6.28
pIC50 [7]: 6.18
K(p,uu,brain) [8]: 0.87
Emin [9]: 18.2%
Emin [10]: 8.7%
Emin [11]: 2.3%
Emin [12]: 42.6%
clearance [17]: 5.37 mL/min/kg
half-life [18]: 222 min
Vd [19]: 1.35 L/kg
Structure (SMILES): O=C(C1CCN(c2cc(Oc3ccc(F)cc3F)ncn2)CC1)N1Cc2ccccc2C1

Reference: ChEMBL document CHEMBL4017477, “Synthesis and evaluation of 4,6-disubstituted pyrimidines as CNS penetrant pan-muscarinic antagonists with a novel chemotype” (Bioorg Med Chem Lett, 2017)
